Earlier results as cited in patent US9585850B2, “Methods of treatment using arylcyclopropylamine compounds” (Duke University, priority 2011, dated 2017).

system: DDD mice; conditions: Sotnikova et al.

Row | SMILES | restoration of locomotion / treatment of akinesia in DDD mice
1 | N[C@@H](Cc1ccc(O)c(O)c1)C(=O)O [L-DOPA, L-3,4-dihydroxyphenylalanine] | fully restored locomotion
2 | CN1CCc2cccc3c2[C@H]1Cc1ccc(O)c(O)c1-3 [apomorphine] | effective in treating akinesia
3 | CCCN1C[C@H](CSC)C[C@@H]2c3cccc4[nH]cc(c34)C[C@H]21 [pergolide] | effective in treating akinesia
